System: CD15+CD11b- neutrophil precursors
Assay: single cell proliferation assay of sorted neutrophil precursors in hematopoietic growth factors
Assay type: cell-based, human
Details: after 10 days in culture; for Percent of Total Cells Evaluated, 0 Cells/Wells / Percent of Total Cells Evaluated, 1-4 Cells/Well / Percent of Total Cells Evaluated, 5-8 Cells/Well / Percent of Total Cells Evaluated, 9-16 Cells/Well / Percent of Total Cells Evaluated, 17-32 Cells/Well / Percent of Total Cells Evaluated, >32 Cells/Well: Table V, individual growth factors, neutrophil precursors
Method: Apheresis samples were collected after peripheral blood counts reached 1000/ul from patients mobilized with G-CSF (10 ug/kg/day) following cyclophosphamide/VP16 chemotherapy. Apheresis was performed using the CS-3000® blood cell separator (Fenwal Division, Baxter Healthcare, Deerfield, Ill.). Bone marrow was collected from normal volunteers.
The assays were performed by sorting single cells based upon expression of CD15 and CD11b by flow cytometry into multiwell plates containing 10 ul of culture media with various growth factor combinations. […] The same studies were performed on fresh bone marrow for comparison. Plates containing the sorted cells were incubated at 37° C. and the number of cells in each well were counted on days 1, 3 and 10. For further characterization of antigenic expression, cells at varying timepoints of culture were stained with the following antigenic combinations: FITC-CD15/PE-CD11b, FITC-CD71/PE-CD45RA,and FITC-CD67/PE-CD34.
To assess the absolute requirement of growth factors on the proliferation of neutrophil precursors, single cells were plated in the presence or absence of all four growth factors described above. The single cell cultures were incubated for an additional 10 days and then each well was scored for the number of total cells. The wells were categorized according to the number of cells per well.
To determine which single growth factor or combination of growth factors would support proliferation of neutrophil precursors, various combinations of the above growth factors were tested in the single cell proliferation assay.

Molecule	Percent of Total Cells Evaluated, 0 Cells/Wells [%]	Percent of Total Cells Evaluated, 1-4 Cells/Well [%]	Percent of Total Cells Evaluated, 5-8 Cells/Well [%]	Percent of Total Cells Evaluated, 9-16 Cells/Well [%]	Percent of Total Cells Evaluated, 17-32 Cells/Well [%]	Percent of Total Cells Evaluated, >32 Cells/Well [%]	fraction of proliferating neutrophil precursors and extent of proliferation, compared with other growth factors (result in words)
GM-CSF: hematopoietic growth factor, granulocyte and macrophage colony-stimulating factor	33	44	12	6	4	1	–
SCF: hematopoietic growth factor, stem cell factor	25	52	13	8	2	1	–
G-CSF: hematopoietic growth factor, granulocyte colony-stimulating factor (protein, UniProt P09919 31-207, looked up) Granulocyte …: TPLGPASSLPQSFLLKCLEQVRKIQGDGAALQEKLVSECATYKLCHPEELVLLGHSLGIPWAPLSSCPSQALQLAGCLSQLHSGLFLYQGLLQALEGISPELGPTLDTLQLDVADFATTIWQQMEELGMAPALQPTQGAMPAFASAFQRRAGGVLVASHLQSFLEVSYRVLRHLAQP	22	40	10	10	6	13	enhances proliferation to a greater extent then either GM-CSF, IL-3 or SCF alone

Source: patent publication US5955357A, “In-vitro-derived human neutrophil precursor cells” (Nexell Therapeutics Inc., priority 1994, dated 1999)
